Results published in patent US8344177B2, “Albumin binding molecules and uses thereof” (Philochem AG, priority 2006, dated 2013).

Assays:
[1] = background, reference 2; cited from earlier work
[2] = MRI analysis of major blood vessels of the brain; assay type: in vivo, C57/B16 mice; conditions: mice, 1.2 μmol i.v.
Experimental: All animal experiments were carried out in strict adherence to the Swiss law for animal protection. MR measurements were performed on a Bruker PharmaScan 47/16 MR system (Bruker BioSpin GmbH) operating at 200 MHz using a circular cryogenic surface coil for signal transmission and reception. Mice were anesthetized with 1.4-1.5% isoflurane in air:O2 (4:1). Scout scans were performed to asses the anatomy of the animal. The shortening effect of both contrast agents DTPA-Gd and 428-D-Lys-β-Ala-DTPA-Gd on the longitudinal blood relaxation time (T1) was investigated in two C57/B16 mice. For this purpose, transverse cine 2D images were acquired using the following sequence parameters: field of view (FOV): 19×19×0.5 mm3, matrix size: 128×128, flip angle: 15°, TE/TR: 3.0/14 ms, averages: 6, repetitions: 50, temporal resolution: 10.75 s, total scan time: 8 min 57 s. The inflowing blood was saturated by exciting a 4 mm thick slice (flip angle15°) cranial to the imaging plane. Contrast agents were injected into the tail vein after a baseline of twenty repetitions. Firstly, a dose of 1.2 μmol of DTPA-Gd and secondly, after a wait time of 30 min, a dose of 1.2 μmol of 428-D-Lys-β-Ala-DTPA-Gd was administered. The time course of the MR signal was analyzed in a large vessel and normalized to the baseline value for comparison.

[3] = molecular target: albumin (Homo sapiens, UniProt P02768); conditions: background statement; cited from earlier work
[4] = Pharmacokinetic profiles of fluorescein and FAM derivatives in mouse (LC/MS/MS of plasma); assay type: in vivo, 129SvPas mice; conditions: for half-life: 129SvPas, mouse, in vivo, iv, 20 nmol
Experimental: In a further in vivo experiment, the pharmacokinetic properties of fluorescein, phenethylamine-FAM, 428-D-Lys-FAM, and 622-D-Lys-FAM were measured and compared. Clearance profiles for the four compounds differed distinctly (FIG. 14).
Pharmacokinetic analyses were performed under the Project Licenses 198/2005 of the Veterinaramt des Kantons Zürich (issued to Dario Neri). 129SvPas mice were injected into the tail vein with 20 nmol of fluorescein, Phenethylamine-FAM, 428-D-Lys-FAM, or 622-D-Lys-FAM dissolved in 100 μl of 100 mM Tris/HCl, 105 mM NaCl, pH 8.2 (2 mice each). 20-30 μl blood samples were taken from the vena saphena with EDTA coated capillaries (Sarstedt) 1, 5, 15, 30, 60, 120, 240, 360, 480 and 1440 minutes after injection and centrifuged. 5-10 μl of plasma were mixed with 40 μl of 0.1% trifluoroacetic acid and 200 μl of ethanol and incubated on ice for 1 hour. After one hour the samples were centrifuged to remove the precipitated proteins. The supernatant was dried under vacuum and subsequently redissolved in 50 μl of DMSO/H2O. 40 μl were injected into an LC/MS/MS system (Micromass Quattro micro API) and run on a linear gradient from in 0.1% HCOOH from 5% to 95% acetonitrile in ten minutes on a Waters XTerra MS C18 column ([…], 1×50 mm) while observing the daughter ions with m/z of 287.1 and 202.1 of the parent ion 333.1 for fluorescein, with m/z of 287.3 and 332.3 of the parent ion 480.2 for Phenethylamine-FAM, with m/z of 287.3, 377.2 and 505.2 of the parent ion 777.1 for 428-D-Lys-FAM, and with m/z of 287.3 and 505.4 of the parent ion 651.3 for 622-D-Lys-FAM. Comparing the area under the curve with a previously obtained dilution series of fluorescein and 428-D-Lys-FAM in plasma with identical sample preparation allowed the quantification of the molecules.

[5] = high doses, bolus injection; depending on the patient group; cited from earlier work
[6] = Fluorescein angiographic analysis of the retina (scanning-laser ophthalmoscopy); assay type: in vivo, C57BL/6 mice; conditions: mice, 50 nmol i.v.
Experimental: To obtain functional information on the imaging properties of 428-D-Lys-FAM, a fluorescein angiographic analysis of the retina was performed. Fluorescein and 428-D-Lys-FAM were injected i.v. into mice and pictures of the eye fundus taken at different time-points. The fluorescein angiographic pictures confirmed the results of the pharmacokinetic studies.
Scanning-laser opthalmoscopy imaging was performed with a Heidelberg Retina Angiograph (HRA I, Heidelberg Engineering, Germany), a confocal scanning-laser opthalmoscope, according to previously described procedures [see reference 39]. Briefly, wild-type C57BL/6 mice were anaesthetized with ketamine (66.7 mg/kg) and xylazine (11.7 mg./kg), and their pupils were dilated with tropicamide eye drops (Mydriaticum Stulln, Pharma Stulln, Germany). The HRA features two argon wavelengths (488 nm and 514 nm) in the short wavelength range and two infrared diode lasers (795 nm and 830 nm) in the long wavelength range. The laser wavelength of 488 nm was used for fluorescein angiography, with a barrier filter at 500 nm. Four mice each received either 50 nmol of fluorescein or 428-D-Lys-FAM dissolved in 100 μl of 100 mM Tris/HCl, 105 mM NaCl, pH 8.2 injected i.v. into the tail. […] In particular, the brightness value in this study was fixed so that the brightest image (428-D-Lys-FAM at 1 minute following injection) could be recorded without overexposure. […]

[7] = molecular target: HSA (Homo sapiens, UniProt P02768); test: Fluorescence polarisation with increasing amounts of HSA; assay type: binding; conditions: 100 nM compound, PBS, 1 h at 25° C., read-out: dissociation constant
Experimental: 100 nM of 428-D-Lys-FAM, 622-D-Lys-FAM and, for comparison, of fluorescein and of phenethylamine-FAM were incubated with increasing amounts of HSA in PBS for 1 h at 25° C. The fluorescence polarization was determined by excitation at 485 nm and measurement at 535 nm.

[8] = Pharmacokinetic profile of 428-ε-Lys-α-NH-FITC vs. fluorescein in mice (LC/MS/MS of serum); design: species or system 129SV mice; conditions: 129SV, mouse, in vivo
Experimental: The pharmacokinetic properties of conjugates of the invention are evaluated by injection of both said conjugate and the corresponding unconjugated agent (i.e. the agent that has not been modified by a compound of the invention) into mice and subsequent sampling of the conjugate and agent concentrations. Conjugate and agent concentrations are determined by Liquid Chromatography/Mass Spectrometry/Mass Spectrometry (LC-MS/MS) according to techniques known in the art.
100 μl of a 170 μM solution of fluorescein and of 428-ε-Lys-α-NH-FITC were injected into 2 pairs of immunocompetent 129SV mice.

Chain of HSA (P02768 25-609): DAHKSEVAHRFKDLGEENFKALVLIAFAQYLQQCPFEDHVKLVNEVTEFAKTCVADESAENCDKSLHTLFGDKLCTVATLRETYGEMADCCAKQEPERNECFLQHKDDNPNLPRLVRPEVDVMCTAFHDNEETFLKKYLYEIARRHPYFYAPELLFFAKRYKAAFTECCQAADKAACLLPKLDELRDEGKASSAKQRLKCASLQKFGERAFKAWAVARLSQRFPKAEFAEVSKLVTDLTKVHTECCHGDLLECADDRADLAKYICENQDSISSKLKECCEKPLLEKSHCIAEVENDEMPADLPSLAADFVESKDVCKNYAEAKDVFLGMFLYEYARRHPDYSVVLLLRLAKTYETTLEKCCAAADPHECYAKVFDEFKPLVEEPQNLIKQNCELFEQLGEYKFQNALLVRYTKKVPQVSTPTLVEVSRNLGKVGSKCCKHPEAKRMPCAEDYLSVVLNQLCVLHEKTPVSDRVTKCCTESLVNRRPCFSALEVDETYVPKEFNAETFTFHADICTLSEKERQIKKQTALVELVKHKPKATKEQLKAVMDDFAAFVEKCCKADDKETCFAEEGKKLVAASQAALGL
Chain of albumin (P02768 25-609, species assumed): as the sequence (P02768 25-609) above

**Q.** Which “maximum tolerated dose relative to unmodified doxorubicin” value [1] does the source give for COc1cccc2c1C(=O)c1c(O)c3c(c(O)c1C2=O)C[C@@](O)(/C(CO)=N/NC(=O)CCCCCN1C(=O)C=CC1=O)C[C@@H]3O[C@H]1C[C@H](N)[C@H](O)[C@H](C)O1 [DOXO-EMCH] here?
**A.** 2-10 times

**Q.** For O=C([O-])CN(CCN(CC(=O)[O-])CC(=O)O)CCN(CC(=O)[O-])CC(=O)O.[Gd+3] [DTPA-Gd, Gadolinium (III)—diethyltriaminepentaacetic acid], which “extravasation observed by MRI” value [2] is on record?
**A.** Rapid extravasation

**Q.** Which “affinity / dissociation constant to albumin (in words)” value [3] does the source give for C=CC1=C(C)/C(=C/c2[nH]c(Cc3[nH]c(/C=C4\NC(=O)C(C)=C4C=C)c(C)c3CCC(=O)O)c(CCC(=O)O)c2C)NC1=O [bilirubin] here?
**A.** nanomolar affinity

**Q.** Which results are given for O=C1OC2(c3ccc(O)cc3Oc3cc(O)ccc32)c2ccccc21 [fluorescein]?
**A.** half-life ([4]; t1/2 (monophasic profile)): 4.6 min; time after injection at which no longer detectable ([4]; mice, 20 nmol into the tail vein, plasma): 30 min; patients with nausea and vomit [5]: up to 20%; time after which staining of the blood vessels not detectable [6]: 20 min; Kd [7]: 76 µM; half-life [8]: 12.5 min

**Q.** Which results are given for O=C(NCCc1ccccc1)c1ccc2c(c1)C(=O)OC21c2ccc(O)cc2Oc2cc(O)ccc21 [phenethylamine-FAM]?
**A.** half-life ([4]; t1/2, α): 5 min; half-life ([4]; t1/2, β): 53 min; Kd [7]: 17 µM
